Source: patent US20100104659A1, “BENZOPYRANOPYRAZOLES” (priority 2006, published 2010)

What was measured:
[1] = test system: RKO human colon adenocarcinoma cells (RKOp27 subclone), proliferating
Procedure: (§1) The anti-proliferative/cytotoxic activity of the compounds described herein can be tested on subclones of RKO human colon adenocarcinoma cells (Schmidt et al., Oncogene 19, 2423-2429; 2000) using the Alamar Blue cell viability assay (described in O'Brien et al. Eur J Biochem 267, 5421-5426, 2000). The compounds are dissolved as 10 mM solutions in DMSO and subsequently diluted in semi-logarithmic steps. DMSO dilutions are further diluted 1:100 into Dulbecco's modified Eagle's medium (DMEM) containing 10% fetal calf serum to a final concentration twice as much as the final concentration in the test. RKO subclones are seeded into 96 well flat bottom plates at a density of 4000 cells per well in a volume of 50 μl per well. 24 hours after seeding the 50 μl each of the compound dilutions in DMEM medium are added into each well of the 96 well plate. Each compound dilution is tested as triplicates. Wells containing untreated control cells are filled with 50 μl DMEM medium containing 1% DMSO. The cells are then incubated with the substances for 72 hours at 37° C. in a humidified atmosphere containing 5% carbon dioxide. To determine the viability of the cells, 10 μl of an Alamar Blue solution (Biosource) are added and the fluorescence is measured at an extinction of 544 nm and an emission of 590 nm. For the calculation of the cell viability the emission value from untreated cells is set as 100% viability and the emission rates of treated cells are set in relation to the values of untreated cells. Viabilities are expressed as % values. The Graphpad Prism program (GraphPad Software, Inc) is used for the calculation of EC50 values for anti-proliferative/cytotoxic activity out of the obtained dose-response curves.
(§2) Each compound dilution is tested as triplicates. Wells containing untreated control cells are filled with 50 μl DMEM medium containing 1% DMSO. The cells are then incubated with the substances for 72 hours at 37° C. in a humidified atmosphere containing 5% carbon dioxide. To determine the viability of the cells, 10 μl of an Alamar Blue solution (Biosource) are added and the fluorescence is measured at an extinction of 544 nm and an emission of 590 nm. For the calculation of the cell viability the emission value from untreated cells is set as 100% viability and the emission rates of treated cells are set in relation to the values of untreated cells. Viabilities are expressed as % values. The Graphpad Prism program is used for the calculation of EC50 values out of the obtained dose-response curves. Viability is compared of proliferating cells grown in the absence of the inducer Ponasterone A, versus viability of cells arrested by the expression of ectopic p27Kip1 induced by Ponasterone A.

[2] = test system: RKO human colon adenocarcinoma cells (RKOp27 subclone), proliferating; assay: Alamar Blue cell viability assay, RKO p27 uninduced (proliferating); conditions: RKOp27, 72 h, read-out: −log EC50 [mol/l] RKO p27 uninduced (proliferating), anti-proliferative/cytotoxic activity (converted)
Procedure: as §1, §2

| Compound | melting point [°C] | −log EC50 [mol/l] RKO p27 uninduced (proliferating), anti-proliferative/cytotoxic activity [1] | EC50 [2] [µM] |
| --- | --- | --- | --- |
| (3RS,3aRS)-8-Fluoro-3-phenyl-3a,4-dihydro-3H-chromeno[4,3-c]pyrazole-2-carboxylic acid ((R)-1-isopropyl-piperidin-3-ylmethyl)-methyl-amide and (3RS,3aRS)-8-Fluoro-3-phenyl-3a,4-dihydro-3H-chromeno[4,3-c]pyrazole-2-carboxylic acid ((S)-1-isopropyl-piperidin-3-ylmethyl)-methyl-amide [Example 26] | – | (proliferating) ≧7.0 mol/l | – |
| CCN(C)C(=O)N1N=C2c3cc(F)ccc3OC[C@@H]2[C@@H]1c1ccccc1 (racemic) [Example 14, (3RS,3aRS)-8-Fluoro-3-phenyl-3a,4-dihydro-3H-chromeno[4,3-c]pyrazole-2-carboxylic acid ethyl-methyl-amide] | 133 to 137 | – | 0.1 to 1 |
| (3RS,3aRS)-8-Fluoro-3-phenyl-3a,4-dihydro-3H-chromeno[4,3-c]pyrazole-2-carboxylic acid methyl-((R)-1-methyl-piperidin-3-ylmethyl)-amide and (3RS,3aRS)-8-Fluoro-3-phenyl-3a,4-dihydro-3H-chromeno[4,3-c]pyrazole-2-carboxylic acid methyl-((S)-1-methyl-piperidin-3-ylmethyl)-amide [Example 24] | – | (proliferating) ≧7.0 mol/l | – |
| CC(C)N(C)C(=O)N1N=C2c3cc(F)ccc3OC[C@@H]2[C@@H]1c1ccccc1 (racemic) [Example 13, (3RS,3aRS)-8-Fluoro-3-phenyl-3a,4-dihydro-3H-chromeno[4,3-c]pyrazole-2-carboxylic acid isopropyl-methyl-amide] | 102 to 105 | – | – |
| CN(C)C(=O)N1N=C2c3cc(F)ccc3OC[C@@H]2[C@@H]1c1ccccc1 (racemic) [Example 7, (3RS,3aRS)-8-Fluoro-3-phenyl-3a,4-dihydro-3H-chromeno[4,3-c]pyrazole-2-carboxylic acid dimethylamide] | 117 | – | 0.1 to 1 |

Now from value to compound, other results behind:

| melting point [°C] | Compound | −log EC50 [mol/l] RKO p27 uninduced (proliferating), anti-proliferative/cytotoxic activity [1] | EC50 [2] [µM] |
| --- | --- | --- | --- |
| 196 | CN(C(=O)N1N=C2c3cc(F)ccc3OC[C@@H]2[C@@H]1c1ccccc1)C1CCNCC1 (racemic) [Example 16, (3RS,3aRS)-8-Fluoro-3-phenyl-3a,4-dihydro-3H-chromeno[4,3-c]pyrazole-2-carboxylic acid methyl-piperidin-4-yl-amide] | – | ≤ 0.1 |
| 142 | O=C(N(C1CCNCC1)C1CC1)N1N=C2c3cc(F)ccc3OC[C@@H]2[C@@H]1c1ccccc1 (racemic) [Example 17, (3RS,3aRS)-8-Fluoro-3-phenyl-3a,4-dihydro-3H-chromeno[4,3-c]pyrazole-2-carboxylic acid cyclopropyl-piperidin-4-yl-amide] | – | 0.1 to 1 |
| 113.2 | CN(CCN)C(=O)N1N=C2c3cc(F)ccc3OC[C@@H]2[C@@H]1c1ccccc1 (stereo in doubt) [Example 18, (3RS,3aRS)-8-Fluoro-3-phenyl-3a,4-dihydro-3H-chromeno[4,3-c]pyrazole-2-carboxylic acid (2-amino-ethyl)-methyl-amide] | – | ≤ 0.1 |
